Assay results taken from article PMC7369796, “The Diverse Piscidin Repertoire of the European Sea Bass (Dicentrarchus labrax): Molecular Characterization and Antimicrobial Activities” (International Journal of Molecular Sciences, 2020).
Where two headings read alike, the source gives them in different places. Ends that are not written are not given here.

Tests used:
[1] = test system: Trypanosoma brucei brucei bloodstream forms (strain Lister 427); assay: Antiparasitic activity (resazurin reduction, IC50); type: cell-based; details: T. brucei brucei bloodstream forms; 72 h, serial dilutions up to 100 µM, 96-well, 200 µL; resazurin reduction (fluorescence 544/590 nm); non-linear regression; means ± SD, two separate experiments
Experimental: (§1) The anti-protozoal activity of sea bass piscidins was evaluated using two parasites: Trypanosoma brucei brucei bloodstream forms (strain Lister 427) and Leishmania infantum promastigotes (strain MHOM/MA/67/ITMAP-263). Parasites were incubated in optimal growth conditions with serial dilutions of the different peptides in flat-bottom 96-well plates, in a final volume of 200 µL, during 72 h. Cell metabolic activity was measured by resazurin reduction. Briefly, 20 µL of resazurin (50 µM) were added and incubated for 4 h. The fluorescence of resorufin, resulting from resazurin reduction by metabolically active cells, was measured at λex = 544 nm and λem = 590 nm in Synergy 2 (BioTek, Winooski, Vermont, USA). Cultures with no added peptide were used as negative controls and cultures with the reference drugs, namely pentamidine (10 nM) and miltefosine (40 µM) were used as positive controls for T. brucei and L. infantum inhibition assays, respectively. Wells with culture medium were used as blanks. Anti-parasitic effect was evaluated by the determination of IC50 value (concentration required to inhibit growth in 50%) and calculated by non-linear regression analysis using GraphPad Prism version 8.1.1 for Windows (GraphPad Software, San Diego, CA, USA). The IC50 reported correspond to representative results from two independent experiments.

[2] = test system: Streptococcus parauberis (DSM 6631); type: cell-based
Experimental: (§2) The biological activity of sea bass piscidin mature peptides was studied by determining their antimicrobial properties. Synthetic piscidin peptides were based on the predicted coding sequences and were commercially produced (NZYtech, Lisbon, Portugal) with an additional C-terminal amidation (Table S3). Peptides were incubated in serial dilutions with ten bacterial strains, known to cause severe diseases in aquaculture: Photobacterium damselae subsp. piscicida (DSM 22834), P. damselae subsp. damselae (DSM 7482), Vibro anguillarum (DSM 21597), V. alginolyticus (DSM 2171), Aeromonas salmonicida subsp. salmonicida (DSM 19634), A. hydrophila subsp. hydrophila (DSM 30187), Yersinia ruckeri (DSM 18506), Edwardsiella tarda (DSM 30052), Lactococcus garviae (DSM 20684) and Streptococcus parauberis (DSM 6631). In short, 1 × 10^8 bacteria per milliliter were incubated in optimal growth conditions with the peptide in flat-bottom 96-well plates, in a final volume of 100 µL, and OD was read at 600 nm in a plate reader after 24 h of incubation. Wells with no added peptide were used as controls, and wells without bacteria were used as blanks. The minimal inhibitory concentration (MIC) was determined as the lowest concentration of piscidin that reduced 50% of bacterial growth when compared to the controls. The MICs reported correspond to representative results from two independent experiments.

[3] = test system: Yersinia ruckeri (DSM 18506); type: cell-based; details: DSM 18506, 24 h
Experimental: as §2

[4] = test system: Aeromonas salmonicida subsp. salmonicida (DSM 19634); type: cell-based; details: DSM 19634, 24 h
Experimental: as §2

[5] = test system: V. alginolyticus (DSM 2171); type: cell-based; details: DSM 2171, 24 h
Experimental: as §2

[6] = test system: Lactococcus garviae (DSM 20684); type: cell-based; details: DSM 20684, 24 h
Experimental: as §2

[7] = test system: Photobacterium damselae subsp. piscicida (DSM 22834); type: cell-based; details: DSM 22834, 24 h
Experimental: as §2

[8] = test system: Vibro anguillarum (DSM 21597); type: cell-based, V. anguillarum; details: DSM 21597, 24 h
Experimental: as §2

[9] = test system: Leishmania infantum promastigotes (strain MHOM/MA/67/ITMAP-263); type: cell-based; details: 72 h
Experimental: as §1

[10] = test system: P. damselae subsp. damselae (DSM 7482); type: cell-based, Photobacterium damselae subsp. damselae; details: DSM 7482, 24 h
Experimental: as §2

| Substance | IC50 [1] | MIC ([2]; DSM 6631, 24 h) | MIC [3] | MIC [4] | MIC [5] | MIC [6] | MIC [7] | MIC [8] | IC50 [9] | MIC [10] | MIC ([2]; S. parauberis, 1 × 10^8 bacteria/mL, 96-well, 100 µL, 24 h, OD 600 nm, serial dilutions up to 200 µM, MIC = lowest concentration that reduced 50% of bacterial growth vs controls, means ± SD, two separate experiments, N.A. = not active at the highest concentration tested) |
| --- | --- | --- | --- | --- | --- | --- | --- | --- | --- | --- | --- |
| FFHHIFRGIVHVGKTIHRLVTG-NH2 [Piscidin1] | 3.88 ± 0.11 µM | 2.4 ± 0.8 µM | 48.4 ± 3.8 µM | 64.2 ± 2.1 µM | 34.8 ± 0.3 µM | 33.9 ± 3.8 µM | 7.4 ± 1.6 µM | 16.3 ± 0.6 µM | 5.2 ± 0.03 µM | 15.0 ± 0.2 µM | – |
| FIHHIFRGIINAGKSIGRFITG-NH2 [Piscidin4] | 3.24 ± 0.16 µM | 1.8 ± 1.8 µM | – | – | – | 48.8 ± 40.1 µM | 29.1 ± 12.0 µM | – | 8.34 ± 0.81 µM | 81.3 ± 9.5 µM | – |
| FLGRFFRRTQAILRGARQGWRAHKAVSRYRDRYIPETDNNQEQP-NH2 [Piscidin2] | 1.74 ± 0.13 µM | 6.9 ± 2.8 µM | 137.6 ± 3.1 µM | 67.7 ± 0.2 µM | 66.2 ± 2.0 µM | – | 9.1 ± 1.7 µM | 146.1 ± 21.4 µM | 5.52 ± 0.26 µM | 105.8 ± 22.1 µM | – |
| FLGRVKSMWSGVRNGYKAYKYQRNMAKMNKGYGPNWQQGGGQEPPADAQANDQPP-NH2 [Piscidin7] | 7.3 ± 0.32 µM | – | – | – | – | – | – | – | 66.77 ± 0.08 µM | – | – |
| LFGSLKAWFKGGKQASRDYKYQKDMAKMNKRYGPNWQQGGGQQPPANAQANDQPPADAQANDQPS-NH2 [Piscidin6, synthetic putative mature peptide of European sea bass piscidin 6, 65 aa, MT066195] | 56.5 ± 1.61 µM | – | – | – | – | – | – | – | – | – | 87.7 ± 123.0 µM |
| LIGSLFRGAKAIFRGARQGWRAHKAVSRYRAGYVRRPVVYYHRVYP-NH2 [Piscidin5] | 4.42 ± 0.12 µM | 1.3 ± 1.2 µM | 25.4 ± 1.8 µM | 47.9 ± 6.1 µM | 36.9 ± 2.3 µM | 42.3 ± 16.4 µM | 3.3 ± 0.1 µM | 10.1 ± 2.7 µM | 7.24 ± 0.61 µM | 14.8 ± 2.0 µM | – |
